Measurements taken from article PMC4721062, “Oxadiazole-2-oxides may have other functional targets, in addition to SjTGR, through which they cause mortality in Schistosoma japonicum” (Parasites & Vectors, 2016).
Read-outs that look alike come from different tables or passages of the source.

How the values were obtained:
[1] = biological target: T1, recombinant SjTGR (Schistosoma japonicum, UniProt B5THG7); test: Inhibition of TrxR activity of recombinant SjTGR (DTNB assay); type: biochemical; settings: 50 nM SjTGR, 1 mM NADPH, 15 min preincubation, DTNB reduction; for IC50: read-out: IC50 of SjTGR
T1 sequence (B5THG7 1-596): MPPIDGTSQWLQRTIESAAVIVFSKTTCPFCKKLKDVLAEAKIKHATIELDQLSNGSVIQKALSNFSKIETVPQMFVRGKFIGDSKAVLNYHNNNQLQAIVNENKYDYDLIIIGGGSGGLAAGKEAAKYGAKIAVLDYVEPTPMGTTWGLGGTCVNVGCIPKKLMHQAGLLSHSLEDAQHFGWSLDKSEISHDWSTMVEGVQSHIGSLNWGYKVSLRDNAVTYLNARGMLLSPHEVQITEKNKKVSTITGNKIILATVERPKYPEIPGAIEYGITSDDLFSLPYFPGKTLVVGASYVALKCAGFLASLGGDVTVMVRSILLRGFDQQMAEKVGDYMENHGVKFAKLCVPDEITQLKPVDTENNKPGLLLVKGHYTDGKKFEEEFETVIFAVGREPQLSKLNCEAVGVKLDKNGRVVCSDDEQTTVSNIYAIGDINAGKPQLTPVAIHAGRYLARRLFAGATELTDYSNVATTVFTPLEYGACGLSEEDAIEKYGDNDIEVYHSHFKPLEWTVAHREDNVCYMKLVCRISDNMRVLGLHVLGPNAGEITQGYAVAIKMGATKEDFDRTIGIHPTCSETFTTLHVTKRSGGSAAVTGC
Procedure: The purified recombinant SjTGR proteins were produced according to the method described by Song et al.. The inhibition of TrxR activity by the recombinant SjTGR was performed as reported by Rai et al.. Briefly, 50 nM SjTGR and 1 mM NADPH were incubated with different concentrations of oxadiazole-2-oxides (2, 4, 6, 10, 20 μM) for 15 min at room temperature. Then, potassium phosphate buffer (pH 7.4) containing 10 mM EDTA, 100 μM NADPH, and 3 mM DTNB was added to start the reaction. The increase of absorbance at 412 nm was monitored during the first 2 min. All assays were done in triplicate.
50 nM SjTGR and 1 mM NADPH were incubated with different concentrations of oxadiazole-2-oxides (2, 4, 6, 10, 20 μM) for 15 min at room temperature. Then, potassium phosphate buffer (pH 7.4) containing 10 mM EDTA, 100 μM NADPH, 3 mM DTNB was added to start the reaction. The increase in absorbance at 412 nm was monitored during the first 2 min. All assays were done in triplicate. Results shown are the mean ± SD (n = 3)

[2] = tested on: juvenile S. japonicum; test: microbe, parasite or virus in culture; type: cell-based; settings: for killing at 2 µM / killing at 5 µM / killing at 50 µM / Killing activity 24hr / Killing activity 48hr / Killing activity 72hr: juvenile worms; for Killing activity 24hr / Killing activity 48hr / Killing activity 72hr: 10 μM
Procedure: Infected Oncomelania hupensis, provided by the Department of Snail Biology, Jiangsu Institute of Parasitic Diseases, were incubated at 25–28 °C, under illumination, for 2 h to hatch S. japonicum cercariae. The cercariae were collected from the water surface with clean cover glass and placed into a centrifuge tube using pre cooled RPMI 1640. Centrifugation was performed for 1 min at 1500 rpm, and then the steps above were repeated. After centrifugation, the supernatant solution was removed. The cercariae at the bottom were washed twice and resuspended with RPMI 1640. Approximately 20–30 cercariae (1 mL of the resuspension medium) were added to one well in a 24-well culture plate. They were incubated overnight at 37 °C with 5 % CO2. The survival rates and number of tails shed were observed under an inverted microscope. Cercariae that had shed their tails were used as juvenile S. japonicum.
20–30 juvenile worms were transferred into each well of a 24-well culture plate, containing 2 mL RPMI 1640 medium, 20 mM HEPES, 100 IU/mL penicillin, […] streptomycin and 10 % fetal bovine serum. Then, oxadiazole-2-oxides (2, 5, 10, and 50 μM), diluted with the RPMI 1640 medium, were added to their allocated wells. The worms in the negative control wells were treated with equal volumes of RPMI 1640 or DMSO and worms treated with AS were observed as positive controls. The juvenile worms’ survival rates were observed under an inverted phase contrast microscope (Leica, Wetzlar, Germany) at 24, 48 and 72 h. Parasite death was defined as an unclear internal structure of the juvenile worms, with incomplete tegument and contents overflowing radially, or unclear internal structure with complete tegument, but having no motor activity during 1 min of continuous observation. All assays were repeated three times.
^b Data collected by visual examination of worm movement and shape; % D = The number of worms dead / The total number of worms observed, and worms dead judged by unclear internal structure of juvenile worms with uncompleted tegument, and contents overflowing radially, or unclear internal structure with complete tegument, but having no motor activity during 1 min of continuous observation. The data presented are the average of three independent experiments.

[3] = tested on: adult S. japonicum; test: microbe, parasite or virus in culture; type: cell-based; settings: for killing at 25 µM / killing at 50 µM / killing at 100 µM / Killing activity 24hr / Killing activity 48hr / Killing activity 72hr / Mortality of adult worms: adult worms
Description: ICR mice (20–22 g), were obtained from the Shanghai Sub-Center of Experimental Animals, Chinese Academy of Sciences. They were maintained at the Department of Experimental Animals, Jiangsu Institute of Parasitic Diseases. To infect each mouse, its abdominal skin was exposed to 50 S. japonica cercariae. All of the mice were executed to collect S. japonica adult worms, through portal vein perfusion, 35 days post-infection. The adult S. japonica collected were washed with RPMI 1640 medium and then kept in RPMI 1640 medium (pH 7.5) with HEPES 20 mM, penicillin (100 IU/mL), streptomycin ([…]) and 10 % fetal bovine serum. Then, two pairs of adult worms were transferred into each well of a 24-well culture plate, with 2 mL of the same medium. The worms were cultured at 37 °C in a humid atmosphere with 5 % CO2.
Adult worms were cultured in a 24-well culture plate for 30–60 min at 37 °C, in a humid atmosphere with 5 % CO2. Then, oxadiazole-2-oxides at different concentrations (10, 25, 50, 100 μM) were added. Equal volumes of RPMI 1640 or DMSO were applied as negative controls, while PZQ was applied as a positive control. The adult worm mobility and parasite survival rates were monitored using an inverted phase contrast microscope, at 24, 48 and 72 h. Parasite death was defined as there being no motor activity during 2 min of continuous observation, and morphological and tegumental alterations. All assays were repeated three times.
^b Data collected by visual examination of worm movement and shape; n.e. […] The data presented are the average of three independent experiments.

[4] = Schistosoma japonicum, 24 h, read-out: Killing activity 24hr
[5] = Schistosoma japonicum, 48 h, read-out: Killing activity 48hr
[6] = Schistosoma japonicum, 72 h, read-out: Killing activity 72hr
[7] = Schistosoma japonicum, 25 μM, 72 h, read-out: Killing activity 72hr
[8] = Schistosoma japonicum, 50 μM, 48 h, read-out: Killing activity 48hr
[9] = Schistosoma japonicum, 50 μM, 72 h, read-out: Killing activity 72hr
[10] = Schistosoma japonicum, 100 μM, 48 h, read-out: Killing activity 48hr
[11] = Schistosoma japonicum, 100 μM, 72 h, read-out: Killing activity 72hr

SMILES | IC50 of SjTGR [1] | IC50 [1] [µM] | killing at 2 µM [2, 4] [%] | killing at 2 µM [2, 5] [%] | killing at 2 µM [2, 6] [%] | killing at 5 µM [2, 4] [%] | killing at 5 µM [2, 5] [%] | killing at 5 µM [2, 6] [%] | killing at 50 µM [2, 4] [%] | killing at 50 µM [2, 5] [%] | killing at 50 µM [2, 6] [%] | Killing activity 24hr ([2]; 24 h) [%D] | Killing activity 48hr ([2]; 48 h) [%D] | Killing activity 72hr ([2]; 72 h) [%D] | killing at 25 µM [3, 7] [%] | killing at 50 µM [3, 9] [%] | killing at 100 µM [3, 11] [%] | Killing activity 24hr ([3]; 10 μM, 24 h) | Killing activity 48hr ([3]; 10 μM, 48 h) | Killing activity 72hr ([3]; 10 μM, 72 h) | other results
N#Cc1c(-c2ccc(OCC(=O)c3ccccc3)cc2)no[n+]1[O-] [Compound 17] | did not inhibit | > 20 | 28.1 | 37.5 | 46.9 | 29.2 | 41.7 | 50 | 45.8 | 60.4 | 72.9 | 40.0 | 48.6 | 54.3 | 62.5 | 87.5 | 85.7 | n.e. | n.e. | 50.0%D | mortality at 50 µM ([2]; Schistosoma japonicum, 24 h, read-out: Mortality of juvenile worms): < 30%; killing at 50 µM [3, 8]: 40%; killing at 100 µM [3, 10]: 57.1%; Killing activity 24hr ([3]; 25 μM, 24 h): n.e.; Killing activity 48hr ([3]; 25 μM, 48 h): n.e.; Killing activity 24hr ([3]; 50 μM, 24 h): n.e.; Killing activity 24hr ([3]; 100 μM, 24 h): sluggish; Mortality of adult worms ([3]; 100 μM, 24 h): did not cause death
N#Cc1c(-c2ccc(OCCCCBr)cc2)no[n+]1[O-] [Compound 14] | – | 15.5 | 21.6 | 31.1 | 35.1 | 26.4 | 33.3 | 38.9 | 46.4 | 66.4 | 80 | 30.4 | 69.6 | 69.6 | 100 | 100 | 100 | 33.3%D | 44.4%D | 77.8%D | mortality at 25 µM ([3]; Schistosoma japonicum, 24 h, read-out: Mortality of adult worms): > 75%; killing at 25 µM ([3]; Schistosoma japonicum, 25 μM, 24 h, read-out: Killing activity 24hr): 75%; killing at 25 µM ([3]; Schistosoma japonicum, 25 μM, 48 h, read-out: Killing activity 48hr): 87.5%; killing at 50 µM ([3]; Schistosoma japonicum, 50 μM, 24 h, read-out: Killing activity 24hr): 100%; killing at 50 µM [3, 8]: 100%; killing at 100 µM ([3]; Schistosoma japonicum, 100 μM, 24 h, read-out: Killing activity 24hr): 100%; killing at 100 µM [3, 10]: 100%
N#Cc1c(-c2ccc(COc3cc(=O)oc4ccccc34)cc2)no[n+]1[O-] [Compound 29] | did not inhibit | > 20 | 30 | 30 | 30 | 30 | 32.5 | 40 | 42.3 | 51.9 | 75 | 30.2 | 31.7 | 65.1 | – | 16.7 | 66.7 | n.e. | n.e. | n.e. | Killing activity 24hr ([3]; 25 μM, 24 h): n.e.; Killing activity 48hr ([3]; 25 μM, 48 h): n.e.; Killing activity 72hr ([3]; 25 μM, 72 h): sluggish; Killing activity 24hr ([3]; 50 μM, 24 h): n.e.; Killing activity 48hr ([3]; 50 μM, 48 h): sluggish; Killing activity 24hr ([3]; 100 μM, 24 h): n.e.; Mortality of adult worms ([3]; 100 μM, 24 h): did not cause death; Killing activity 48hr ([3]; 100 μM, 48 h): sluggish
